Experimental data: article PMC12171319, “3‐Oxabicyclo[3.1.1]heptane as an Isostere of meta‐Benzene” (Angewandte Chemie (International Ed. in English), 2025)
≈ marks a conversion by molar mass, not a printed value. Like-named read-outs stand apart in the source and are kept apart here.

What was measured:
[1] = Kinetic solubility in phosphate-buffered saline, pH 7.4; assay type: physicochemical; settings: 25 °C, pH 7.4, aqueous buffer, kinetic from dmso stock; for solubility at 2 h: PBS solubility
Description: page 239: 7. […] The data […] analysis software. […] page 240: Methods Kinetic solubility assay was performed according to Enamine's aqueous solubility SOP. Briefly, […] theoretical concentration of 400 μM in duplicates in phosphate-buffered saline pH 7.4 […] The experimental compound dilutions in PBS were further allowed to equilibrate at 25 °C on a thermostatic shaker for two hours and then filtered through HTS filter plates using a vacuum manifold. The filtrates of test […] prepared to theoretical concentrations of 0 μM (blank), 10 μM, 25 μM, 50 μM, 100 μM, and 200 […] Ondansetron was used as a reference compound to control proper assay performance. 200 μL of each sample was transferred to a 96-well plate and measured in the 230-550 nm range with a 5 nm step. The concentrations of compounds in PBS filtrate are calculated using a dedicated Microsoft Excel calculation script. Proper absorbance wavelengths for calculations are selected for each compound manually based on absorbance maximums (absolute absorbance unit values for the minimum and maximum concentration points within the 0 - 3 OD range). Each final dataset is visually evaluated by the operator, and goodness of fit (R2) is calculated for each calibration curve. […] close to the upper limit of the range may have higher actual solubility (e.g. 5'-deoxy-5- fluorouridine). The calibration curves are shown in Appendix*. […] Compound ID PBS solubility, pH 7.4, μM SE […] Ondansetron 128 126 127** 1.1 EN300-7362818 6 6 6 0.2 (Sonidegib) BCHep-Sonidegib (50) 5 3 4 0.9 Table S3. 2nd batch PBS solubility, pH 7.4, μM Compound ID SE […] Ondansetron 124 124 124** 0.1 EN300-45381956 (51) 34 34 34 0.2 *Goodness of fit (R2) in all titration curves as well as the variations between repeat measurements indicates a high quality of the experimental data in the current batch of test articles. **Ondansetron solubility data are consistent with those previously obtained. […]

[2] = Metabolic stability in human liver microsomes; assay type: in vitro ADME; settings: both sexes, human
Description: 9. Metabolic Stability in Human Liver Microsomes
The objective of this study was to determine the metabolic stability of 3 test articles (EN300- […]
in human liver microsomes at five-time points over 40 minutes using HPLC-MS. Metabolic stability is defined as the percentage of parent compound lost over time in the presence of a metabolically active test system.
Potassium phosphate monobasic (Bio-Basic, Canada; Lot #N9016010)
Potassium phosphate dibasic (Bio-Basic, Canada; Lot #MA7100050) […]
Glucose-6-phosphate dehydrogenase from baker's yeast, type XV (Sigma-Aldrich, USA; Cat […]
D-Glucose-6-phosphate sodium salt (Sigma-Aldrich, USA; Cat #G7879-1G)
NADPH tetrasodium salt (BLD Pharmatech Ltd., Cat #BD116582)
Verapamil hydrochloride (Sigma Aldrich, USA; Cat #V4629)
Niclosamide (Sigma-Aldrich, USA; Cat #N3510)
DMSO stock solutions of the tested compounds 20 mM
Gradient HPLC system (Shimadzu)
Triple quadrupole mass-detector API 3000 with TurboIonSpray Ion Source (AB Sciex, Canada) […]
Multichannel pipettors 1-30 µL, 2-125 µL, 30-850 µL (Thermo Scientific) […]
All measurements were performed using the Shimadzu HPLC system including vacuum degasser, gradient pumps, reverse phase HPLC column, column oven, and autosampler. Mass spectrometric analysis was performed using an API 3000 mass spectrometer from Applied Biosystems/MDS Sciex (AB Sciex) with Turbo V ion source and TurboIonspray interface. The […]
and system control were performed using Analyst 1.6.3 software from AB Sciex.
Microsomal incubations were carried out in 96-well plates in 5 aliquots of 30 μL each (one for each time point). Liver microsomal incubation medium comprised of phosphate buffer (100 mM, pH 7.4), MgCl2 (3.3 mM), NADPН (3 mM), glucose-6-phosphate (5.3 mM), glucose-6-phosphate dehydrogenase (0.67 units/mL) with 0.42 mg of liver microsomal protein per mL. In the control reactions, the NADPH-cofactor system was substituted with phosphate buffer. Test compounds […]
100 rpm. Five-time points over 40 minutes were analyzed. The reactions were stopped by adding 5 volumes of acetonitrile with internal standard to incubation aliquots, followed by protein sedimentation by centrifuging at 5500 rpm for 5 min. Each reaction was performed in duplicates.
Supernatants were analyzed using the HPLC system coupled with a tandem mass spectrometer.
The elimination constant (kel), half-life (t1/2), and intrinsic clearance (Clint) were determined in a plot of […] versus time, using linear regression analysis:1
1 In order to indicate the quality of the linear regression analysis, the R2 (determination coefficient) values are provided.
In some cases, the last time point is excluded from the calculations to ensure acceptable logarithmic linearity of decay.

[3] = Table S5, 2nd batch
[4] = physchem
[5] = in vitro; settings: human; for Papp A→B at 90 min, 10 µM: Caco-2, pH 7.4, Papp (AB); for Papp B→A at 90 min, 10 µM: Caco-2, pH 7.4, Papp (BA)
[6] = system: Hedgehog signaling pathway; settings: Mus musculus
[7] = replicate 1, 10 µM, no verapamil
[8] = replicate 2, 10 µM, no verapamil

SMILES: Cc1c(C(=O)Nc2ccc(N3C[C@@H](C)O[C@@H](C)C3)nc2)cccc1-c1ccc(OC(F)(F)F)cc1 [Sonidegib]
- solubility kinetic at 2 h [1]: 6 µM (≈ 2.91 µg/mL)
- solubility at 2 h ([1]; pH 7.4, Incubation 1): 6 µM (≈ 2.91 µg/mL)
- solubility at 2 h ([1]; pH 7.4, Incubation 2): 6 µM (≈ 2.91 µg/mL)
- solubility at 2 h ([1]; pH 7.4, Mean): 6 µM (≈ 2.91 µg/mL)
- half-life at 2 μM ([2]; human liver microsomes, pH 7.4, human liver microsomes, read-out: t1/2: experimental half-time of a metabolic decomposition): 1.73 h
- microsomal CLint at 2 μM ([2]; human liver microsomes, pH 7.4, read-out: CLint: experimental metabolic stability in human liver microsomes): 16 µL/min/mg
- remaining at 7 min, 2 µM ([2]; liver microsomes, pH 7.4, Table S7, 2nd batch, 7 min, 2 µM): 100%
- remaining at […], 2 µM ([2]; liver microsomes, pH 7.4, Table S7, 2nd batch, 15 min, 2 µM): 94%
- remaining at 25 min, 2 µM ([2]; liver microsomes, pH 7.4, Table S7, 2nd batch, 25 min, 2 µM): 89%
- remaining at 40 min, 2 µM ([2]; liver microsomes, pH 7.4, Table S7, 2nd batch, 2 µM, read-out: % Remaining, Mean of 2): 77%
- remaining at 40 min, 2 µM ([2]; liver microsomes, pH 7.4, Table S7, 2nd batch, no NADPH, read-out: % Remaining without cofactor, Mean of 2): 103%
- k el at 2 µM ([2]; liver microsomes, pH 7.4, Table S7, 2nd batch): 0.000117 s⁻¹
- half-life at 2 μM ([2]; liver microsomes, pH 7.4, Table S7, 2nd batch, read-out: t1/2): 1.73 h
- D ([3]; incubation 1): 5.61E+04
- D ([3]; incubation 2): 5.60E+04
- D ([3]; incubation 3): 6.79E+04
- logD at 1 h ([4]; pH 7.4, LogD, pH 7.4): ≥ 4.5
- logD at 1 h ([4]; pH 7.4, LogD, pH 7.4 (overall of 3 incubations)): ≥ 4.5
- logD at 1 h ([4]; pH 7.4, logD (7.4): experimental distribution coefficient in n-octanol/phosphate-buffered saline, pH 7.4): ≥ 4
- efflux ratio at 90 min, 10 µM ([5]; Caco-2, pH 7.4): 0.3
- Papp A→B at 90 min, 10 µM ([5]; Mean, 10 µM, no verapamil): 2.8 ×10⁻⁶ cm/s
- Papp A→B at 90 min, 10 µM [5, 7]: 2.9 ×10⁻⁶ cm/s
- Papp A→B at 90 min, 10 µM [5, 8]: 2.7 ×10⁻⁶ cm/s
- Papp B→A at 90 min, 10 µM ([5]; Mean, 10 µM, no verapamil): 0.9 ×10⁻⁶ cm/s
- Papp B→A at 90 min, 10 µM [5, 7]: 1 ×10⁻⁶ cm/s
- Papp B→A at 90 min, 10 µM [5, 8]: 0.9 ×10⁻⁶ cm/s
- recovery at 90 min, 10 µM ([5]; Caco-2, pH 7.4, Recovery A-B in presence of Verapamil, Mean, with verapamil): 65%
- recovery at 90 min, 10 µM ([5]; Caco-2, pH 7.4, Recovery A-B in presence of Verapamil, replicate 1, with verapamil): 67%
- recovery at 90 min, 10 µM ([5]; Caco-2, pH 7.4, Recovery A-B in presence of Verapamil, replicate 2, with verapamil): 63%
- recovery at 90 min, 10 µM ([5]; Caco-2, pH 7.4, Recovery A-B, Mean, no verapamil): 36%
- recovery at 90 min, 10 µM ([5]; Caco-2, pH 7.4, Recovery A-B, replicate 1, no verapamil): 35%
- recovery at 90 min, 10 µM ([5]; Caco-2, pH 7.4, Recovery A-B, replicate 2, no verapamil): 37%
- recovery at 90 min, 10 µM ([5]; Caco-2, pH 7.4, Recovery B-A in presence of Verapamil, Mean, with verapamil): 61%
- recovery at 90 min, 10 µM ([5]; Caco-2, pH 7.4, Recovery B-A in presence of Verapamil, replicate 1, with verapamil): 63%
- recovery at 90 min, 10 µM ([5]; Caco-2, pH 7.4, Recovery B-A in presence of Verapamil, replicate 2, with verapamil): 60%
- recovery at 90 min, 10 µM ([5]; Caco-2, pH 7.4, Recovery B-A, Mean, no verapamil): 45%
- recovery at 90 min, 10 µM ([5]; Caco-2, pH 7.4, Recovery B-A, replicate 1, no verapamil): 46%
- recovery at 90 min, 10 µM ([5]; Caco-2, pH 7.4, Recovery B-A, replicate 2, no verapamil): 43%
- IC50 ([6]; NIH3T3, read-out: IC50, Hedgehog signaling pathway, mean ± SD from 2 independent experiments, experiment with BCH-Sonidegib (50)): 6.4 ± 0.5 nM
- IC50 ([6]; NIH3T3, read-out: IC50, Hedgehog signaling pathway, reference compound in the experiment with EN300-45381956 (51)): 1.46 nM
- IC50 ([6]; NIH3T3, read-out: pIC50, Hedgehog signaling pathway, experiment with EN300-45381956 (51) (converted), calculated from IC50): 1.58 nM
